The text below walks through data of the Kinase Knowledgebase extract (Sharma et al. 2016).

The target in the experiment is MAPK14;MAPK11;MAPK12;MAPK13 (human) (UniProt Q16539). Nature of the experiment: Assessment of MAPK11/MAPK12/MAPK13/MAPK14 Kinase Activity.

Regarding `Cc1ccc(C(=O)NC2CC2)cc1-c1ccn2c(-c3ccc(S(C)(=O)=O)cc3Cl)nnc2c1`, the IC50 was under 25 nM.
With `Cc1ccc(C(=O)NC2CC2)cc1-c1ccn2c(-c3ccccc3F)nnc2c1` the figure was under 25 nM.
For the compound `Cc1ccc(C(=O)NC2CC2)cc1-c1ccn2c(C(C)C)nnc2c1`, the half-inhibitory concentration (IC50) was under 25 nM.
`Cc1ccc(C(=O)Nc2ccnn2C)cc1-c1ccn2c(-c3cccc(F)c3Cl)nnc2c1`: the IC50 is under 25 nM.
With `Cc1cccc(Cl)c1-c1nnc2cc(-c3cc(C(=O)NC4CC4)cc(F)c3C)ccn12` the figure was under 25 nM.
In the case of `Cc1ccc(C(=O)Nc2ccon2)cc1-c1ccn2c(-c3c(F)cccc3F)nnc2c1`, the IC50 was under 25 nM.
The compound `Cc1ccc(C(=O)Nc2ccnn2C)cc1-c1ccn2c(C(C)C)nnc2c1` gave an IC50 of under 25 nM.
The compound `Cc1ccc(C(=O)NC2CC2)cc1-c1ccn2c(Nc3ccccc3)nnc2c1` came in with an IC50 of under 25 nM.
`Cc1ccc(C(=O)NC2CC2)cc1-c1ccn2c(C(C)(C)C)nnc2c1` showed an IC50 of under 25 nM.
The compound `Cc1ccc(C(=O)Nc2ccnn2C)cc1-c1ccn2c(-c3sccc3C)nnc2c1` returned a concentration for half-maximal inhibition (IC50) of under 25 nM.
`Cc1ccc(C(=O)NC2CC2)cc1-c1ccn2c(C3CCCC3)nnc2c1` had an IC50 of under 25 nM.
Compound `Cc1ccc(C(=O)Nc2ccnn2C)cc1-c1ccn2c(-c3ccc(F)cc3C)ncc2c1` gave an IC50 of under 25 nM.
Compound `Cc1ccc(C(=O)Nc2ccnn2C)cc1-c1ccn2c(-c3ccc(F)cc3C)nnc2c1` gave a concentration for half-maximal inhibition (IC50) of under 25 nM.
Compound `Cc1c(F)cc(C(=O)NC2CC2)cc1-c1ccn2c(-c3c(F)cccc3Cl)nnc2c1` registered an IC50 of under 25 nM.
In turn, `Cc1c(F)cc(C(=O)NC2CC2)cc1-c1ccn2c(C(C)(C)C)nnc2c1` came in with an IC50 of under 25 nM.
In turn, `Cc1ccc(C(=O)NC2CC2)cc1-c1ccn2c(-c3c(C)cccc3F)nnc2c1` yielded a 50% inhibitory concentration (IC50) of under 25 nM.
`Cc1ccc(C(=O)NC2CC2)cc1-c1ccn2c(-c3ccc(F)cc3C)ncc2c1` came in with a half-maximal inhibitory concentration (IC50) of under 25 nM.
In the case of `Cc1ccc(C(=O)NC2CC2)cc1-c1ccn2c(-c3c(F)cccc3Cl)nnc2c1`, the IC50 was under 25 nM.
Regarding `Cc1ccc(C(=O)NC2(C)CC2)cc1-c1ccn2c(-c3ccccc3Cl)nnc2c1`, the half-inhibitory concentration (IC50) is under 25 nM.
For `Cc1ccc(C(=O)Nc2ccnn2C)cc1-c1ccn2c(-c3cc(F)ccc3Cl)nnc2c1`, the IC50 is under 25 nM.
`Cc1ccc(C(=O)NC2CC2)cc1-c1ccn2c(-c3cccc(F)c3Cl)nnc2c1` returned an IC50 of under 25 nM.
Next, `Cc1c(F)cc(C(=O)NC2CC2)cc1-c1ccn2c(-c3c(Cl)cccc3Cl)nnc2c1`: under 25 nM; `Cc1ccc(C(=O)NC2CC2)cc1-c1ccn2c(N(C)c3ccccc3)nnc2c1`: under 25 nM.
The compound `Cc1cccc(F)c1-c1nnc2cc(-c3cc(C(=O)NC4CC4)cc(F)c3C)ccn12` yielded an IC50 of under 25 nM.
Compound `Cc1ccc(C(=O)NC2CC2)cc1-c1ccn2c(C3CC3)nnc2c1` showed an IC50 of under 25 nM.
For the compound `Cc1ccc(C(=O)Nc2ccnn2C)cc1-c1ccn2c(-c3cc(F)cc(F)c3)ncc2c1`, the half-maximal inhibitory concentration (IC50) is under 25 nM.
As for `Cc1c(F)cc(C(=O)NC2CC2)cc1-c1ccn2c(-c3ccccc3Cl)nnc2c1`, the IC50 was under 25 nM.
`Cc1ccc(C(=O)NC2CC2)cc1-c1ccn2c(Cc3ccccc3)nnc2c1` returned an IC50 of under 25 nM.
Regarding `Cc1c(F)cc(C(=O)NC2CC2)cc1-c1ccn2c(-c3c(F)cccc3F)nnc2c1`, the IC50 is under 25 nM.
Consider `Cc1ccc(C(=O)Nc2ccnn2C)cc1-c1ccn2c(C3(C(F)(F)F)CC3)nnc2c1`, for which the half-maximal inhibitory concentration (IC50) is under 25 nM.
Next, `Cc1ccc(C(=O)NC2CC2)cc1-c1ccn2c(N3CCCCC3)nnc2c1`: under 25 nM.
In turn, `Cc1ccc(C(=O)NC2CC2)cc1-c1ccn2c(-c3ccccc3C(F)(F)F)nnc2c1` showed an IC50 of under 25 nM.
`Cc1ccccc1-c1nnc2cc(-c3cc(C(=O)NC4CC4)cc(F)c3C)ccn12` gave a half-inhibitory concentration (IC50) of under 25 nM.
In the case of `Cc1ccc(C(=O)NC2CC2)cc1-c1ccn2c(-c3ccc(F)cc3C)nnc2c1`, the half-maximal inhibitory concentration (IC50) is under 25 nM.
For the compound `Cc1ccc(C(=O)NC2CC2)cc1-c1ccn2c(-c3cc(F)c(F)cc3Cl)nnc2c1`, the IC50 was under 25 nM.
`CCc1ccccc1-c1nnc2cc(-c3cc(C(=O)NC4CC4)ccc3C)ccn12` registered an IC50 of under 25 nM.
Consider `Cc1ccc(C(=O)NC2CC2)cc1-c1ccn2c(-c3c(Cl)cccc3Cl)nnc2c1`, for which the half-inhibitory concentration (IC50) was under 25 nM.
Compound `Cc1cc(F)c(C(=O)NC2CC2)cc1-c1ccn2c(-c3ccccc3Cl)nnc2c1` returned an IC50 of under 25 nM.
In turn, `Cc1ccc(C(=O)NC2CC2)cc1-c1ccn2c(-c3sccc3C)nnc2c1` displayed a half-maximal inhibitory concentration (IC50) of under 25 nM.
Take `COc1ccccc1-c1nnc2cc(-c3cc(C(=O)NC4CC4)ccc3C)ccn12`: the IC50 is under 25 nM.
As for `Cc1ccc(C(=O)Nc2ccnn2C)cc1-c1ccn2c(-c3cc(F)c(F)cc3Cl)nnc2c1`, the IC50 was under 25 nM.
Take `Cc1c(F)cc(C(=O)Nc2ccon2)cc1-c1ccn2c(-c3c(F)cccc3F)nnc2c1`: the IC50 is under 25 nM.
Next, `Cc1ccc(C(=O)NC2CC2)cc1-c1ccn2c(N3CCCC3)nnc2c1`: under 25 nM; `Cc1ccc(C(=O)NC2CC2)cc1-c1ccn2c(C3CCOCC3)nnc2c1`: under 25 nM.
`Cc1ccc(C(=O)Nc2ccnn2C)cc1-c1cc2nnc(-c3ccccc3Cl)n2cc1C` had an IC50 of under 25 nM.
For the compound `Cc1ccc(C(=O)NC2CC2)cc1-c1ccn2c(-c3ccc(F)cc3Cl)nnc2c1`, the IC50 was under 25 nM.
With `Cc1ccc(C(=O)NC2CC2)cc1-c1ccn2c(-c3ccccc3Cl)nnc2c1` the figure was under 25 nM; with `Cc1ccc(C(=O)NC2CC2)cc1-c1ccn2c(NC(C)C)nnc2c1`, under 25 nM.
For the compound `Cc1ccc(C(N)=O)cc1-c1ccn2c(-c3ccccc3Cl)nnc2c1`, the half-maximal inhibitory concentration (IC50) was under 25 nM.
Compound `Cc1ccc(C(=O)NC2CC2)cc1-c1ccn2c(C34C[C@H]5C[C@@H](C3)C[C@@H](C4)C5)nnc2c1` registered an IC50 of under 25 nM.
In turn, `Cc1ccc(C(=O)NC2CC2)cc1-c1ccn2c(-c3ccccc3)nnc2c1` gave an IC50 of under 25 nM.
With `Cc1ccc(C(=O)NC2CC2)cc1-c1ccn2c(-c3ccccc3C)nnc2c1` the figure was under 25 nM.
Next, `Cc1c(F)cc(C(=O)NC2CC2)cc1-c1ccn2c(-c3ccccc3C(F)(F)F)nnc2c1`: under 25 nM.
`Cc1ccc(C(=O)NC2CC2)cc1-c1ccn2c(CC(C)(C)C)nnc2c1`: the IC50 is under 25 nM.
Compound `Cc1ncoc1-c1nnc2cc(-c3cc(C(=O)NC4CC4)cc(F)c3C)ccn12` registered an IC50 of under 25 nM.
`Cc1ccc(C(=O)NC2CC2)cc1-c1cc2nnc(-c3ccccc3Cl)n2cc1C` registered an IC50 of under 25 nM.
`Cc1ccc(C(=O)NC2CC2)cc1-c1ccn2c(C3CCCCC3)nnc2c1` had an IC50 of under 25 nM.
Next, `Cc1ccc(C(=O)NC2CC2)cc1-c1cc(C)n2c(-c3ccccc3Cl)nnc2c1`: under 25 nM; `Cc1ccc(C(=O)NC2CC2)cc1-c1ccn2c(-c3cc(F)ccc3Cl)nnc2c1`: under 25 nM.
`Cc1ccc(C(=O)Nc2ccnn2C)cc1-c1ccn2c(-c3ccccc3F)nnc2c1` yielded a half-inhibitory concentration (IC50) of under 25 nM.
Next, `Cc1ccc(C(=O)Nc2ccnn2C)cc1-c1ccn2c(-c3cnccc3C(F)(F)F)ncc2c1`: under 25 nM; `Cc1ccc(C(=O)NC2CC2)cc1-c1ccn2c(C3(C(F)(F)F)CC3)nnc2c1`: under 25 nM.
Take `Cc1ccc(C(=O)NC2CC2)cc1-c1ccn2c(-c3ccncc3Cl)nnc2c1`: the IC50 is under 25 nM.
In turn, `Cc1ccc(C(=O)Nc2ccnn2C)cc1-c1ccn2c(-c3ccc(F)cc3Cl)nnc2c1` registered a half-maximal inhibitory concentration (IC50) of under 25 nM.
In the case of `Cc1ccc(C(=O)NC2CC2)cc1-c1ccn2c(-c3c(F)cccc3C(F)(F)F)nnc2c1`, the half-inhibitory concentration (IC50) was under 25 nM.
For `Cc1ccc(C(=O)NC2CC2)cc1-c1ccn2c(-c3sccc3Cl)nnc2c1`, the half-inhibitory concentration (IC50) is under 25 nM.
With `Cc1ccc(C(=O)NC2CC2)cc1-c1ccn2c(-c3c(C)cccc3Cl)nnc2c1`, the IC50 is under 25 nM.
Next, `CCNC(=O)c1ccc(C)c(-c2ccn3c(-c4ccccc4Cl)nnc3c2)c1`: under 25 nM.
The compound `Cc1ccc(C(=O)Nc2ccnn2C)cc1-c1ccn2c(-c3ccccc3Cl)nnc2c1` gave an IC50 of under 25 nM.
Compound `Cc1c(F)cc(C(=O)NC2CC2)cc1-c1ccn2c(-c3ccncc3Cl)nnc2c1` returned an IC50 of under 25 nM.
The compound `Cc1ccc(C(=O)Nc2ccnn2C)cc1-c1ccn2c(-c3ccccc3Cl)ncc2c1` displayed an IC50 of under 25 nM.

By IC50 is commonly meant the midpoint of a concentration-inhibition curve. Low readings indicate greater potency in that assay, high ones weaker potency in that assay.
